EC50 data for 23 compounds are collected here from ChEMBL document CHEMBL1144741, “Review of cytotoxic cephalostatins and ritterazines: isolation and synthesis” (2008).

The subject of this assay is P388. The assay is described as follows: Antitumor activity against mouse P388 cells. Format: functional. As to conditions: read-out: ED50 (the source's name).
As for `C[C@@H]1[C@H](C)[C@]2(OC[C@]34C(=O)C[C@@H]5[C@@H](CC[C@H]6Cc7nc8c(nc7C[C@@]65C)C[C@@H]5CC[C@@H]6[C@H](CC(=O)[C@]67C[C@@H]6O[C@@]9(CCC(C)(C)O9)[C@@H](C)[C@@H]6[C@]7(C)O)[C@@]5(C)C8)[C@H]3C[C@H](O)[C@@H]4[C@H]2C)OC1(C)C` [RITTERAZINE Z], the EC50 was 2200 nM.

With `CO[C@H]1c2nc3c(nc2C[C@@H]2CC[C@H]4C5=C[C@@H]6O[C@]7(O[C@](C)(CO)C[C@H]7O)[C@@H](C)[C@]6(O)[C@@]5(C)[C@H](O)C[C@@H]4[C@]21C)C[C@@]1(C)[C@@H](CC[C@H]2C4=CC[C@@H]5[C@H](C)[C@@]6(OC[C@]45C(=O)C[C@@H]21)OC(C)(C)C[C@H]6O)C3` [CEPHALOSTATIN 18], the EC50 came out at 4.6 nM. Turning to `C[C@H]1[C@H]2[C@H](C=C3[C@@H]4CC[C@H]5Cc6nc7c(nc6C[C@]5(C)[C@@H]4C[C@@H](O)[C@@]32C)C[C@@H]2CC[C@@H]3[C@H](CC(=O)[C@]34C[C@@H]3O[C@]5(CCC(C)(C)O5)[C@@H](C)[C@@H]3[C@]4(C)O)[C@@]2(C)C7)O[C@]12C[C@](C)(CO)CO2` [RITTERAZINE X], the EC50 is 3400 nM. Regarding `C[C@H]1[C@H]2C[C@@H](O)c3c4c(cc(c32)OC12OC(C)(C)C[C@H]2O)[C@@]1(C)Cc2nc3c(nc2C[C@@H]1CC4)C[C@@]1(C)[C@@H](CC[C@H]2C4=C[C@@H]5O[C@@]6(C[C@]5(O)[C@@]4(C)[C@H](O)C[C@@H]21)O[C@](C)(CO)C[C@H]6O)C3` (stereo partly drawn) [CEPHALOSTATIN 6], the EC50 came out at 2.3 nM.

Take `C[C@H]1[C@H]2[C@H](C[C@]3(C(=O)C[C@@H]4[C@H]3CC[C@H]3Cc5nc6c(nc5C[C@@]34C)C[C@@H]3CC[C@@H]4[C@H](CC(=O)[C@]45C[C@@H]4O[C@@]7(CCC(C)(C)O7)[C@@H](C)[C@@H]4[C@]5(C)O)[C@@]3(C)C6)[C@@]2(C)O)O[C@]12CCC(C)(C)O2` [RITTERAZINE O]: the EC50 is 2380 nM. Take `C[C@@H]1[C@@]2(CC[C@](C)(O)CO2)O[C@H]2C=C3[C@@H]4[C@@H](O)C[C@H]5Cc6nc7c(nc6C[C@]5(C)[C@H]4C[C@@H](O)[C@]3(C)[C@]21O)C[C@@H]1CC[C@H]2[C@H]3C[C@@H]4O[C@@]5(CCC(C)(C)O5)C[C@@H]4[C@@]3(C)[C@H](O)C[C@@H]2[C@@]1(C)C7` [RITTERAZINE B]: the EC50 was 0.17 nM. As to `C[C@@H]1[C@@]2(CC[C@](C)(O)CO2)O[C@H]2C=C3[C@@H]4CC[C@H]5Cc6nc7c(nc6C[C@]5(C)[C@H]4C[C@@H](O)[C@]3(C)[C@]21O)C[C@@H]1CC[C@H]2C3=C[C@@H]4O[C@]5(CC[C@@](C)(O)CO5)[C@@H](C)[C@@H]4[C@@]3(C)[C@H](O)C[C@@H]2[C@@]1(C)C7` [RITTERAZINE L], the EC50 was found to be 11.1 nM. Turning to `C[C@@H]1[C@@]2(CC[C@](C)(O)CO2)O[C@H]2C=C3[C@@H]4[C@@H](O)C[C@H]5Cc6nc7c(nc6C[C@]5(C)[C@H]4C[C@@H](O)[C@]3(C)[C@]21O)C[C@@H]1CC[C@@H]2[C@H](CC(=O)[C@]3(C)[C@H]4C[C@@]5(CCC(C)(C)O5)O[C@H]4C[C@]23O)[C@@]1(C)C7` [RITTERAZINE I], the EC50 amounted to 15.3 nM. For the compound `C[C@H]1[C@H]2[C@H](C[C@@H]3[C@@H]4CC[C@H]5Cc6nc7c(nc6C[C@]5(C)[C@H]4C[C@@H](O)[C@]23C)C[C@@H]2CC[C@@H]3[C@@H](CC(=O)[C@]34C[C@@H]3O[C@]5(CCC(C)(C)O5)[C@@H](C)[C@@H]3[C@]4(C)O)[C@@]2(C)C7)O[C@@]12CCC(C)(C)O2` [RITTERAZINE Q], the EC50 stood at 657 nM. For the compound `C[C@@H]1[C@@]2(CC[C@@](C)(CO)O2)O[C@H]2C=C3[C@@H]4[C@@H](O)C[C@H]5Cc6nc7c(nc6C[C@]5(C)[C@H]4C[C@@H](O)[C@]3(C)[C@]21O)C[C@@H]1CC[C@H]2[C@H]3C[C@@H]4O[C@]5(CCC(C)(C)O5)[C@@H](C)[C@@H]4[C@@]3(C)[C@H](O)C[C@@H]2[C@@]1(C)C7` [RITTERAZINE C], the EC50 was found to be 102 nM. With `C[C@@H]1[C@H]2C[C@@H]3O[C@@]34[C@]3(O)CC[C@H]5Cc6nc7c(nc6C[C@]5(C)C3=CC(=O)[C@]24CO[C@]12OC(C)(C)C[C@H]2O)C[C@@H]1CC[C@H]2C3=C[C@@H]4O[C@]5(O[C@](C)(CO)C[C@H]5O)[C@@H](C)[C@]4(O)[C@@]3(C)[C@H](O)C[C@@H]2[C@@]1(C)C7` [CEPHALOSTATIN 14], the EC50 amounted to 4.4 nM. Consider `C[C@@H]1[C@H]2CC=C3[C@@H]4CC[C@H]5Cc6nc7c(nc6C[C@]5(C)[C@@]4(O)CC(=O)[C@@]32CO[C@]12OC(C)(C)C[C@H]2O)C[C@@H]1CC[C@H]2C3=C[C@@H]4O[C@@]5(CC[C@](C)(O)CO5)[C@@H](C)[C@]4(O)[C@@]3(C)[C@H](O)C[C@@H]2[C@@]1(C)C7` [CEPHALOSTATIN 16], for which the EC50 is below 1.1 nM. In the case of `C[C@@H]1[C@@]2(CC[C@](C)(O)CO2)O[C@H]2C=C3[C@@H]4[C@@H](O)C[C@H]5Cc6nc7c(nc6C[C@]5(C)[C@H]4C[C@@H](O)[C@]3(C)[C@]21O)C[C@@H]1CC[C@H]2[C@H]3C[C@@H]4O[C@]5(CCC(C)(C)O5)C[C@@H]4[C@@]3(C)[C@H](O)C[C@@H]2[C@@]1(C)C7` [RITTERAZINE F], the EC50 is 0.81 nM. As for `CO[C@H]1c2nc3c(nc2C[C@@H]2CC[C@H]4C5=CC[C@@H]6[C@@H](C)[C@]7(OC[C@]56C(=O)C[C@@H]4[C@]21C)OC(C)(C)C[C@H]7O)C[C@@]1(C)[C@@H](CC[C@H]2C4=C[C@@H]5O[C@]6(O[C@](C)(CO)C[C@H]6O)[C@@H](C)[C@]5(O)[C@@]4(C)[C@H](O)C[C@@H]21)C3` [CEPHALOSTATIN 11], the figure is 2.7 nM; as for `C[C@@H]1[C@H]2C[C@@H]3O[C@@]34[C@]3(O)CC[C@H]5Cc6nc7c(nc6C[C@]5(C)C3=CC(=O)[C@]24CO[C@]12OC(C)(C)[C@@H](C)[C@H]2O)C[C@@H]1CC[C@H]2C3=C[C@@H]4O[C@]5(O[C@](C)(CO)C[C@H]5O)[C@@H](C)[C@]4(O)[C@@]3(C)[C@H](O)C[C@@H]2[C@@]1(C)C7` [CEPHALOSTATIN 15], 26.2 nM; as for `C[C@@H]1[C@@]2(CC[C@](C)(O)CO2)O[C@H]2C=C3[C@@H]4[C@@H](O)C[C@H]5Cc6nc7c(nc6C[C@]5(C)[C@H]4C[C@@H](O)[C@]3(C)[C@]21O)C[C@@H]1CC[C@@H]2[C@H](CC(=O)[C@]23C[C@@H]2O[C@]4(CCC(C)(C)O4)[C@@H](C)[C@@H]2[C@]3(C)O)[C@@]1(C)C7` [RITTERAZINE D], 17.5 nM.

In the case of `C[C@H]1[C@H]2[C@H](C[C@]3(C(=O)C[C@H]4[C@H]3CC[C@H]3Cc5nc6c(nc5C[C@@]34C)C[C@@H]3CC[C@@H]4[C@@H](CC(=O)[C@]5(C)[C@@H]7[C@H](C[C@]45O)O[C@]4(CC[C@](C)(O)CO4)[C@H]7C)[C@@]3(C)C6)[C@@]2(C)O)O[C@@]12CCC(C)(C)O2` [RITTERAZINE U], the EC50 came to 2340 nM. As for `C[C@H]1[C@H]2[C@H](C[C@]3(C(=O)C[C@@H]4[C@H]3CC[C@H]3Cc5nc6c(nc5C[C@@]34C)C[C@@H]3CC[C@@H]4[C@H](CC(=O)[C@]45C[C@@H]4O[C@@]7(CCC(C)(C)O7)[C@@H](C)[C@@H]4[C@]5(C)O)[C@@]3(C)C6)[C@@]2(C)O)O[C@@]12CCC(C)(C)O2` [RITTERAZINE N], the figure is 522 nM; as for `C[C@@H]1[C@]2(O[C@H]3C=C4[C@@H]5CC[C@H]6Cc7nc8c(nc7C[C@]6(C)[C@H]5C[C@@H](O)[C@]4(C)[C@]31O)C[C@@H]1CC[C@H]3C4=C[C@@H]5O[C@]6(O[C@](C)(CO)C[C@H]6O)[C@@H](C)[C@]5(O)[C@@]4(C)[C@H](O)C[C@@H]3[C@@]1(C)C8)O[C@](C)(CO)C[C@H]2O` [CEPHALOSTATIN 12], 76.2 nM.

On to `C[C@@H]1[C@@]2(CC[C@](C)(O)CO2)O[C@H]2C=C3[C@@H]4[C@@H](O)C[C@H]5Cc6nc7c(nc6C[C@]5(C)[C@H]4C[C@@H](O)[C@]3(C)[C@]21O)C[C@@H]1CC[C@H]2[C@H]3C[C@@H]4O[C@@]5(CCC(C)(C)O5)C[C@@H]4[C@@]3(C)C(=O)C[C@@H]2[C@@]1(C)C7` [RITTERAZINE H], for which the EC50 came to 17.8 nM. Consider `C[C@@H]1[C@]2(O[C@H]3C=C4[C@@H]5CC[C@H]6Cc7nc8c(nc7C[C@]6(C)[C@H]5C[C@@H](O)[C@]4(C)[C@]31O)C[C@@H]1CC[C@H]3C4=C[C@@H]5O[C@]6(O[C@](C)(CO)C[C@H]6O)[C@@H](C)[C@]5(O)[C@@]4(C)[C@H](O)C[C@@H]3[C@@]1(C)[C@H]8O)O[C@](C)(CO)C[C@H]2O` [CEPHALOSTATIN 13], for which the EC50 worked out at 47.9 nM.

Take `C[C@@H]1[C@@]2(CC[C@](C)(O)CO2)O[C@H]2C=C3[C@@H]4[C@@H](O)C[C@H]5Cc6nc7c(nc6C[C@]5(C)[C@H]4C[C@@H](O)[C@]3(C)[C@]21O)C[C@@H]1CC[C@H]2C3=C[C@@H]4O[C@]5(CC[C@@](C)(O)CO5)[C@@H](C)[C@]4(O)[C@@]3(C)[C@H](O)C[C@@H]2[C@@]1(C)C7` [RITTERAZINE J]: the EC50 stood at 14 nM.

For the compound `C[C@H]1[C@H]2[C@H](C=C3[C@@H]4CC[C@H]5Cc6nc7c(nc6C[C@]5(C)[C@@H]4C[C@@H](O)[C@@]32C)C[C@@H]2CC[C@H]3[C@H]4C[C@@H]5O[C@@]6(CCC(C)(C)O6)[C@@H](C)[C@@H]5[C@@]4(C)[C@H](O)C[C@@H]3[C@@]2(C)C7)O[C@]12CC[C@](C)(O)CO2` [RITTERAZINE Y], the EC50 was 4 nM.
